Measured values: PubChem BioAssay AID248 (DTP/NCI, 2004)
Inconclusive results and toxic doses are left out. No stated cut-off is given here; in the data, active means T/C of 150% or more; inactive means T/C below 125%.

Tested on: L1210 leukemia ip in BDF1 mice, survival T/C
Experiment: NCI In Vivo Anticancer Drug Screen. Data for tumor model L1210 Leukemia (intraperitoneal) in B6D2F1 (BDF1) mice
Details: endpoint: mean survival time, higher = longer survival
Method: The antitumor activity of compounds was measured in mice bearing transplantable tumors. Survival or tumor size were measured and the results are expressed as the measurement made in the treated group (T) divided by the measurement made in the vehicle treated control group (C). The tumor model used in this assay is L1210 Leukemia (intraperitoneal) in B6D2F1 (BDF1) mice

[1] = dose: 100.0 mg/kg/injection, schedule: Q01DX009 (ip), vehicle: Klucel (hydroxypropylcellulose) (HPC)
[2] = dose: 200.0 mg/kg/injection, schedule: Q01DX009 (ip), vehicle: Klucel (hydroxypropylcellulose) (HPC)
[3] = dose: 400.0 mg/kg/injection, schedule: Q01DX009 (ip), vehicle: Klucel (hydroxypropylcellulose) (HPC)
[4] = dose: 400.0 mg/kg/injection, schedule: Q01DX001 (ip), vehicle: carboxymethylcellulose (CMC)
[5] = dose: 50.0 mg/kg/injection, schedule: Q01DX001 (ip), vehicle: saline
[6] = dose: 100.0 mg/kg/injection, schedule: Q01DX001 (ip), vehicle: saline
[7] = dose: 100.0 mg/kg/injection, schedule: Q04DX003 (ip), vehicle: saline
[8] = dose: 400.0 mg/kg/injection, schedule: Q04DX003 (ip), vehicle: saline
[9] = dose: 200.0 mg/kg/injection, schedule: Q01DX001 (ip), vehicle: saline
[10] = dose: 400.0 mg/kg/injection, schedule: Q01DX001 (ip), vehicle: saline
[11] = dose: 100.0 mg/kg/injection, schedule: Q01DX009 (ip), vehicle: saline with Tween-80
[12] = dose: 200.0 mg/kg/injection, schedule: Q01DX009 (ip), vehicle: saline with Tween-80
[13] = dose: 25.0 mg/kg/injection, schedule: Q04DX002 (ip), vehicle: saline with Tween-80
[14] = dose: 200.0 mg/kg/injection, schedule: Q04DX003 (ip), vehicle: saline
[15] = dose: 100.0 mg/kg/injection, schedule: Q01DX009 (ip), vehicle: saline
[16] = dose: 200.0 mg/kg/injection, schedule: Q01DX009 (ip), vehicle: saline
[17] = dose: 400.0 mg/kg/injection, schedule: Q01DX009 (ip), vehicle: saline
[18] = dose: 100.0 mg/kg/injection, schedule: Q04DX003 (ip), vehicle: saline with Tween-80
[19] = dose: 200.0 mg/kg/injection, schedule: Q04DX003 (ip), vehicle: saline with Tween-80
[20] = dose: 400.0 mg/kg/injection, schedule: Q01DX009 (ip), vehicle: saline with Tween-80

Measured: T/C

CCOC(=O)c1ccc(NC(=O)Oc2cc(=O)oc3ccccc23)cc1
inactive: [1] 97 % of control | [2] 95 % of control | [3] 96 % of control

CC(=O)NC1(C#N)c2ccccc2-c2ccccc21
inactive: dose: 50.0 mg/kg/injection, schedule: Q01DX001 (ip), vehicle: carboxymethylcellulose (CMC) 104 % of control | dose: 100.0 mg/kg/injection, schedule: Q01DX001 (ip), vehicle: carboxymethylcellulose (CMC) 104 % of control | dose: 200.0 mg/kg/injection, schedule: Q01DX001 (ip), vehicle: carboxymethylcellulose (CMC) 102 % of control | [4] 104 % of control

Nc1ncnc(N)c1NC(=O)c1ccc(Cl)cc1
inactive: dose: 25.0 mg/kg/injection, schedule: Q01DX001 (ip), vehicle: saline with Tween-80 107 % of control | dose: 50.0 mg/kg/injection, schedule: Q01DX001 (ip), vehicle: saline with Tween-80 104 % of control | dose: 100.0 mg/kg/injection, schedule: Q01DX001 (ip), vehicle: saline with Tween-80 120 % of control

CSc1cccc(Cl)c1
inactive: dose: 75.0 mg/kg/injection, schedule: Q01DX001 (ip), vehicle: saline 100 % of control | dose: 150.0 mg/kg/injection, schedule: Q01DX001 (ip), vehicle: saline 101 % of control

COC(=O)C1=NN(C(C)=O)C(c2ccc(C)cc2)(c2ccc(C)cc2)C1
inactive: dose: 100.0 mg/kg/injection, schedule: Q01DX001 (ip), vehicle: steriod suspending solution 105 % of control | dose: 200.0 mg/kg/injection, schedule: Q01DX001 (ip), vehicle: steriod suspending solution 87 % of control | dose: 400.0 mg/kg/injection, schedule: Q01DX001 (ip), vehicle: steriod suspending solution 92 % of control

O=[N+]([O-])c1cccc(/C=N/NC(=S)Nc2ccccc2)c1
inactive: [1] 89 % of control | [2] 93 % of control

CCOP(=O)(OCC)C(=O)N(CC)CC
inactive: [1] 101 % of control | [2] 90 % of control | [3] 91 % of control

Cc1ccccc1OCC(=O)Nc1ccc(-c2ccc(NC(=O)COc3ccccc3C)cc2)cc1
inactive: dose: 100.0 mg/kg/injection, schedule: Q04DX002 (ip), vehicle: gum acacia 92 % of control | dose: 200.0 mg/kg/injection, schedule: Q04DX002 (ip), vehicle: gum acacia 95 % of control | dose: 400.0 mg/kg/injection, schedule: Q04DX002 (ip), vehicle: gum acacia 100 % of control

COc1ccccc1C(=O)N/N=C/c1ccc(O)cc1O
inactive: [1] 102 % of control | [2] 96 % of control | [3] 100 % of control

C=CC[Si](Cl)(Cl)Cl
inactive: [5] 93 % of control | [6] 98 % of control

Clc1nc(Cl)nc(-c2cccn2-c2ccccc2)n1
inactive: dose: 6.25 mg/kg/injection, schedule: Q01DX009 (ip), vehicle: saline with Tween-80 92 % of control | dose: 100.0 mg/kg/injection, schedule: Q04DX003 (ip), vehicle: acetone 101 % of control | [7] 101 % of control | dose: 200.0 mg/kg/injection, schedule: Q04DX003 (ip), vehicle: acetone 86 % of control | [8] 93 % of control

CC1(C)CCC2CCCCC2O1 (stereo not drawn)
inactive: [6] 102 % of control | [9] 98 % of control | [10] 96 % of control

CN(C)/C=N/NC(=O)C(O)(c1ccccc1)c1ccccc1
inactive: dose: 75.0 mg/kg/injection, schedule: Q01DX009 (ip), vehicle: Klucel (hydroxypropylcellulose) (HPC) 105 % of control | dose: 150.0 mg/kg/injection, schedule: Q01DX009 (ip), vehicle: Klucel (hydroxypropylcellulose) (HPC) 100 % of control | dose: 300.0 mg/kg/injection, schedule: Q01DX009 (ip), vehicle: Klucel (hydroxypropylcellulose) (HPC) 95 % of control

OCCc1ccccc1O
inactive: [5] 94 % of control | [6] 94 % of control | [9] 100 % of control | [10] 100 % of control

O=c1[nH]nc(-c2ccccn2)o1
inactive: dose: 50.0 mg/kg/injection, schedule: Q01DX009 (ip), vehicle: saline with Tween-80 97 % of control | [11] 90 % of control | [12] 97 % of control

c1ccc(C[As+](c2ccccc2)(c2ccccc2)c2ccccc2)cc1
inactive: dose: 5.0 mg/kg/injection, schedule: Q01DX001 (ip), vehicle: saline 101 % of control | dose: 6.25 mg/kg/injection, schedule: Q04DX002 (ip), vehicle: saline with Tween-80 97 % of control | dose: 10.0 mg/kg/injection, schedule: Q01DX001 (ip), vehicle: saline 90 % of control | dose: 12.5 mg/kg/injection, schedule: Q04DX002 (ip), vehicle: saline with Tween-80 86 % of control | dose: 20.0 mg/kg/injection, schedule: Q01DX001 (ip), vehicle: saline 93 % of control | [13] 101 % of control | dose: 40.0 mg/kg/injection, schedule: Q01DX001 (ip), vehicle: saline 109 % of control

O=C(O)C(=O)c1ccccc1
inactive: [7] 92 % of control | [14] 91 % of control

O=C(O)/C=C/C(=O)NCCC(=O)O
inactive: [15] 114 % of control | [16] 115 % of control | [17] 109 % of control

Nc1ncnn1C(=O)NCCCl
inactive: [15] 94 % of control | [7] 101 % of control | [16] 97 % of control | [14] 101 % of control | [17] 97 % of control | [8] 101 % of control

CCOC(=O)C1SC(N)=NC1=O (stereo not drawn)
inactive: [18] 94 % of control | [19] 90 % of control

O=C(Nc1ccc(CN2CCOCC2)cc1)c1ccc(C(=O)Nc2ccc(CN3CCOCC3)cc2)cc1
inactive: dose: 37.5 mg/kg/injection, schedule: Q01DX Z (ip), vehicle: water 86 % of control | dose: 75.0 mg/kg/injection, schedule: Q01DX Z (ip), vehicle: water 91 % of control

N#Cc1ccc(-c2ccc(C#N)cc2Br)c(Br)c1
inactive: [1] 93 % of control | dose: 100.0 mg/kg/injection, schedule: Q04DX003 (ip), vehicle: Klucel (hydroxypropylcellulose) (HPC) 94 % of control | [2] 93 % of control | dose: 200.0 mg/kg/injection, schedule: Q04DX003 (ip), vehicle: Klucel (hydroxypropylcellulose) (HPC) 95 % of control | [3] 88 % of control | dose: 400.0 mg/kg/injection, schedule: Q04DX003 (ip), vehicle: Klucel (hydroxypropylcellulose) (HPC) 96 % of control

COC(O)C(Cl)(Cl)Cl (stereo not drawn)
inactive: [6] 101 % of control | [15] 97 % of control | [7] 96 % of control | [9] 97 % of control | [16] 103 % of control | [14] 100 % of control | [10] 109 % of control | [17] 103 % of control | [8] 104 % of control

OCc1cccc(F)c1
inactive: [15] 98 % of control | [7] 105 % of control | [16] 95 % of control | [14] 102 % of control | [17] 98 % of control | [8] 104 % of control

CC(C)(C)COC(=O)C(C)(C)CC(C)(C)C
inactive: [6] 93 % of control | dose: 187.0 mg/kg/injection, schedule: Q01DX001 (ip), vehicle: carboxymethylcellulose (CMC) 92 % of control | [9] 102 % of control | dose: 267.0 mg/kg/injection, schedule: Q01DX001 (ip), vehicle: carboxymethylcellulose (CMC) 97 % of control | [4] 96 % of control | dose: 600.0 mg/kg/injection, schedule: Q01DX001 (ip), vehicle: carboxymethylcellulose (CMC) 96 % of control

C=CCOCC(O)CN(C)CC1CCCO1 (stereo not drawn)
inactive: [15] 95 % of control | [7] 98 % of control | [16] 95 % of control | [14] 86 % of control

Cc1cc(C(=O)O)c2cccc(C(F)(F)F)c2n1
inactive: [11] 112 % of control | [18] 111 % of control | [12] 103 % of control | [19] 114 % of control | [20] 101 % of control | dose: 400.0 mg/kg/injection, schedule: Q04DX003 (ip), vehicle: saline with Tween-80 103 % of control

C=CC(=O)c1ccccc1
inactive: [13] 100 % of control | dose: 50.0 mg/kg/injection, schedule: Q04DX002 (ip), vehicle: saline with Tween-80 87 % of control | dose: 100.0 mg/kg/injection, schedule: Q04DX002 (ip), vehicle: saline with Tween-80 94 % of control

ICC1COCC(CI)O1 (stereo not drawn)
inactive: [11] 101 % of control | [12] 113 % of control | [20] 106 % of control

CCCNC(=O)Oc1ccccc1C(N)=O
inactive: [1] 105 % of control | [2] 102 % of control
